The target in the assay is T1, farnesyl protein transferase (FPT) (Rattus norvegicus, UniProt Q02293+Q04631).
T1 construct: were partially purified from rat brain by ammonium sulfate fractionation followed by Q-Sepharose; from tissue; host or cells: rat brain
Kind of assay: In vitro enzyme assay: inhibition of farnesyl protein transferase (transfer of [3H]farnesyl to Ras-CVLS). It is filed as biochemical.

The mark [1] stands for this setting: Table 1, partially purified rat brain FPT, Ras-CVLS, read-out: FPT IC50.
Setting [2] is: Table 2, comparison with GGPT, read-out: ENZYME INHIBITION FPT IC50.
Where [3] appears, read: FPT IC50, Table 1, partially purified rat brain FPT, Ras-CVLS.

Where “and” joins values, the source holds several entries; their conditions need not be identical. Equal values may be shown once. Read-outs that look alike come from different tables or passages of the source.

Turning to `NC(=O)N1CCC(CC(=O)N2CCC(C3c4ccc(Cl)c(Br)c4CCc4cc(Br)cnc43)CC2)CC1` (single isomer, unassigned) [Example 13], the IC50 (commonly the concentration needed to halve the response being measured) was 5 nM under setting [1] and 5 nM under setting [2].

For the molecule `O=C(Cc1cc[n+]([O-])cc1)N1CCC(C2c3ccc(Cl)c(Br)c3CCc3cc(Br)cnc32)CC1` (single isomer, unassigned) [Example 14A], the 50% inhibitory concentration (IC50) by setting is: under setting [1], 2.6 nM; under setting [2], 2.6 nM.

Consider `NC(=O)N1CCC(CC(=O)N2CCC(C3c4ncc(Br)cc4CCc4cc(Cl)cc(Cl)c43)CC2)CC1` (single isomer, unassigned) [Example 18], for which the concentration for half-maximal inhibition (IC50) is, setting by setting: under setting [1], 3.1 nM; under setting [2], 3.1 nM. Take `O=C(Cc1cc[n+]([O-])cc1)N1CCN([C@H]2c3ccc(Cl)c(Br)c3CCc3cc(Br)cnc32)CC1` [Example 5]: the half-inhibitory concentration (IC50) under setting [1] came out at 2.3 nM and the IC50 under setting [2] amounted to 2.3 nM. As to `O=C(Cc1cc[n+]([O-])cc1)N1CCC(=C2c3ncc(Br)cc3CCc3cc(Cl)cc(Br)c32)CC1` (racemic) [Example 7], the IC50 by setting is: under setting [1], 12 nM; under setting [2], 12 nM. For `O=C(Cc1cc[n+]([O-])cc1)N1CCN([C@H]2c3ccc(Cl)cc3CCc3cc(Br)cnc32)CC1` [Example 16B], the concentration for half-maximal inhibition (IC50) under setting [3] is 38 nM and 23 nM. `O=C(Cc1cc[n+]([O-])cc1)N1CCN([C@@H]2c3ccc(Cl)cc3CCc3cc(Br)cnc32)CC1` [Example 16A]: under setting [3], the half-maximal inhibitory concentration (IC50) was 32 nM and 26 nM. With `O=C(Cc1cc[n+]([O-])cc1)N1CCN([C@H]2c3ncc(Br)cc3CCc3cc(Cl)cc(Br)c32)CC1` [Example 11A], the IC50 by setting is: under setting [1], 1.8 nM and 2.1 nM; under setting [2], 1.8 nM and 2.1 nM. As to `O=C(Cc1cc[n+]([O-])cc1)N1CCC(=C2c3ccc(Cl)c(Br)c3CCc3cc(Br)cnc32)CC1` [Example 2], the IC50 was 10 nM and 16 nM under setting [1]; 10 nM and 16 nM under setting [2].

As to `O=C(Cc1cc[n+]([O-])cc1)N1CCC([C@H]2c3ncc(Br)cc3CCc3cc(Cl)cc(Br)c32)CC1` [Example 9], the IC50 under setting [1] was determined as 1.3 nM and the IC50 under setting [2] stood at 1.3 nM.

The values above are taken from patent EP1019392B1, “TRICYCLIC AMIDES USEFUL FOR INHIBITION OF G-PROTEIN FUNCTION AND FOR TREATMENT OF PROLIFERATIVE DISEASES” (SCHERING CORPORATION, priority 1995, dated 1997).
